Source: the supplement of paper PMC6045584

Columns and labels:
Test in all cases: area under dose-response curve of surviving fraction (unscaled, Aref=0) (surviving fraction x log10(nM)); higher = more resistant
Settings in all cases: exposure time: 5 days; dose range 0.5-1000 nM
DECITABINE = compound: Nc1ncn([C@H]2C[C@H](O)[C@@H](CO)O2)c(=O)n1 [DECITABINE]
Outline: (§1)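 Inhibitor was applied to tumour cell lines at eight concentrations (0.5 to 1000 nM) for five days in 384-well plates. Luminescence from CellTiter-Glo, scaled to DMSO-only wells, gave surviving fractions in three screens per line, and these were fitted by 3-parameter logistic regression with the drc R package. The area under the curve is an unscaled activity area. Aref was 0, and dose was on a log10 scale.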

2-METHOXYESTRADIOL = compound: COc1cc2c(cc1O)CC[C@@H]1[C@@H]2CC[C@]2(C)[C@@H](O)CC[C@@H]12 [2-METHOXYESTRADIOL]
Outline: as §1

ABT-737 = compound: CN(C)CC[C@H](CSc1ccccc1)Nc1ccc(S(=O)(=O)NC(=O)c2ccc(N3CCN(Cc4ccccc4-c4ccc(Cl)cc4)CC3)cc2)cc1[N+](=O)[O-] [ABT-737]
Outline: as §1

[1] = compound: CCN(CC)CCCCNc1ncc2cc(-c3cc(OC)cc(OC)c3)c(NC(=O)NC(C)(C)C)nc2n1
Outline: as §1

VISMODEGIB = compound: CS(=O)(=O)c1ccc(C(=O)Nc2ccc(Cl)c(-c3ccccn3)c2)c(Cl)c1 [VISMODEGIB]
Outline: as §1

FLUOROURACIL = compound: O=c1[nH]cc(F)c(=O)[nH]1 [FLUOROURACIL]
Outline: as §1

SALINOMYCIN = compound: CC[C@@H](C(=O)[C@@H](C)[C@@H](O)[C@H](C)[C@@H]1O[C@@H]([C@@H](CC)C(=O)O)CC[C@@H]1C)[C@H]1O[C@]2(C=C[C@@H](O)[C@]3(CC[C@@](C)([C@H]4CC[C@](O)(CC)[C@H](C)O4)O3)O2)[C@H](C)C[C@@H]1C [SALINOMYCIN]
Outline: as §1

NUTLIN3 = compound: COc1ccc(C2=N[C@@H](c3ccc(Cl)cc3)[C@@H](c3ccc(Cl)cc3)N2C(=O)N2CCNC(=O)C2)c(OC(C)C)c1 [NUTLIN3]
Outline: as §1

17-AAG = compound: C=CCNC1=C2C[C@@H](C)C[C@H](OC)[C@H](O)[C@@H](C)/C=C(\C)[C@H](OC(N)=O)[C@@H](OC)/C=C\C=C(/C)C(=O)NC(=CC1=O)C2=O [17-AAG]
Outline: as §1

FLAVOPIRIDOL = compound: CN1CC[C@H](c2c(O)cc(O)c3c(=O)cc(-c4ccccc4Cl)oc23)[C@H](O)C1 [FLAVOPIRIDOL]
Outline: as §1

DOXORUBICIN = compound: COc1cccc2c1C(=O)c1c(O)c3c(c(O)c1C2=O)C[C@@](O)(C(=O)CO)C[C@@H]3O[C@H]1C[C@H](N)[C@H](O)[C@H](C)O1 [DOXORUBICIN]
Outline: as §1

RESVERATROL = compound: Oc1ccc(/C=C/c2cc(O)cc(O)c2)cc1 [RESVERATROL]
Outline: as §1

LAPATINIB = compound: CS(=O)(=O)CCNCc1ccc(-c2ccc3ncnc(Nc4ccc(OCc5cccc(F)c5)c(Cl)c4)c3c2)o1 [LAPATINIB]
Outline: as §1

HS57T LUNG
area under dose-response curve (DECITABINE): 3.05
area under dose-response curve (2-METHOXYESTRADIOL): 2.78
area under dose-response curve (ABT-737): 3.45
area under dose-response curve [1]: 2.66
area under dose-response curve (VISMODEGIB): 3.29
area under dose-response curve (FLUOROURACIL): 3.24
area under dose-response curve (SALINOMYCIN): 2.57
area under dose-response curve (NUTLIN3): 3.4
area under dose-response curve (17-AAG): 1.35
area under dose-response curve (FLAVOPIRIDOL): 2.07
area under dose-response curve (DOXORUBICIN): 1.22
area under dose-response curve (RESVERATROL): 3.35
area under dose-response curve (LAPATINIB): 3.42
